Columns and labels:
metastatic breast cancer = conditions: in vivo
From the text: Patients were HER-2/neu negative with a life expectancy of greater than 3 months. Patients had no prior chemotherapy for metastatic disease, no prior capecitabine therapy, and no prior fluoropyrimidine therapy and paclitaxel chemotherapy given in an adjuvant setting.
The primary endpoint was objective response rate and safety/toxicity, with evaluation performed after every 2 cycles. A secondary endpoint was time to progression.

[1] = mouse, in vivo
From the text: Methods: Toxicity of Abraxane® and Taxotere® was compared in a dose-ranging study in nude mice given the drugs on a q4d×3 schedule.

cells [2] = assay: In vitro cellular cytotoxicity assay; type: cell-based; conditions: Abraxane 1 to 24 nM
Procedure: Cells were treated with Abraxane® in a range of concentrations (1 to 24 nM).

cells [3] = assay: In vitro clonogenic assay; type: cell-based
Procedure: Cells were treated with saline control, Abraxane® alone, VEGF-A alone, Avastin® alone, Abraxane®+VEGF-A or Abraxane®+Avastin®.

[4] = test system: Luciferase-expressing MDA-MB-231 human breast cancer xenografts; assay: Abraxane and Avastin on growth of luciferase-expressing MDA-MB-231 xenografts; type: in vivo, female nude (nu/nu) mice
Procedure: Abraxane®, either alone or in combination, was administered at 10 mg/kg/day daily for 5 days in two cycles separated by 1 week. Some groups were administered Abraxane® at 10 mg/kg daily for 5 days for only one cycle. […] Mice were monitored for tumor growth and drug toxicity. Mice were sacrificed when the mean tumor volume in the saline-treated control group reached 2000 mm^3.
Tumor growth inhibition (TGI) was calculated by comparing mean tumor volume of test groups to that of the control group at the last measurement of the control group.

[5] = test system: metastasis of luciferase-expressing MDA-MB-231 tumor cells to the lymph nodes and lungs; assay: Abraxane and Avastin on metastasis by luciferase activity; type: in vivo, female nude (nu/nu) mice
Procedure: Abraxane®, either alone or in combination, was administered at 10 mg/kg/day daily for 5 days in two cycles separated by 1 week. Some groups were administered Abraxane® at 10 mg/kg daily for 5 days for only one cycle. […] Mice were sacrificed when the mean tumor volume in the saline-treated control group reached 2000 mm^3. Axillary lymph nodes and both lobes of the lungs were removed from each mouse and cellular extracts were prepared. The presence of MDA-MB-231 cells in these tissues was evaluated by analysis of luciferase activity and was an indicator of metastasis from the primary tumor. Luciferase activity was measured in extracts from 10 lymph nodes and both lobes of the lungs on the day of sacrifice (day 65 after tumor implantation). A value greater than 500 light units per 20 μl lysate was rated as positive for presence of MDA-MB-231 cells and for incidence of metastasis.
As used herein, incidence refers to the presence of luciferase activity in tissue from each mouse.

[6] = test system: MDA-MB-435 human breast tumor xenografts; assay: HKP and Abraxane in MDA-MB-435 xenografts; type: in vivo, mice; conditions: nineteen weeks of treatment; HKP 250 ug i.v. weekly x16; Abraxane 10 mg/kg/day i.v. x5 days
From the text: The antiangiogenic activity of small synthetic pro-apoptotic peptides composed of two functional domains, one targeting the CD13 receptors (aminopeptidase N) on tumor microvessels and the other disrupting the mitochondrial membrane following internalization have previously been reported. See Nat Med. 1999 September; 5(9): 1032-8.
Methods: MDA-MB-435 human tumor xenografts were established at an average tumor volume of 100 mm^3, mice were randomized into groups of 12-13 animals and treated with HKP, Abraxane®, or HKP and Abraxane®. HKP was delivered i.v. (250 ug), once a week, for 16 weeks. Abraxane® was administered i.v., daily for 5 days at 10 mg/kg/day only for the first week of treatment. The Abraxane® dose used was substantially below its MTD (30 mg/kg/day, qd×5) to prevent the tumor from complete regression so effect of HKP could be noted.

CCCCCOC(=O)Nc1nc(=O)n([C@@H]2O[C@H](C)[C@@H](O)[C@H]2O)cc1F [capecitabine]
main toxicity related to the agent within the combination (metastatic breast cancer): hand foot syndrome

Taxotere®
maximum tolerated dose (MTD) [1]: 15 mg/kg

Avastin®: anti-VEGF antibody
effect of addition on in vitro cytotoxicity of Abraxane (cells [2]): increased the in vitro cytotoxicity of Abraxane®
number of colonies formed (cells [3]): slight reduction in the number of colonies formed
% TGI ([4]; Avastin Dose 4 mg/kg): 12.56%
Mean Tumor Volume (mm^3) ([4]; Avastin Dose 4 mg/kg twice a week for 6 weeks): 2089 ± 251 mm^3
% Complete Regression ([4]; Avastin Dose 4 mg/kg, day 65): 0%
metastasis by luciferase activity in tissue extracts [5]: did not significantly inhibit metastasis

CNGRC-GG-d(KLAKLAK)2 [HKP]
tumor volume [6]: 4,372 mm^3

From US10682420B2, “Breast cancer therapy based on hormone receptor status with nanoparticles comprising taxane” (Abraxis BioScience, LLC, priority 2006, dated 2020)
